Test results: ChEMBL document CHEMBL4673242, “Penithoketone and Penithochromones A-L, Polyketides from the Deep-Sea-Derived Fungus Penicillium thomii YPGA3” (J Nat Prod, 2020)

Legend:
LNCaP C4-2B [1] = assay: Cytotoxicity against human LNCaP C4-2B cells assessed as reduction in cell viability at 50 uM after 72 hrs by MTT assay relative to control; format: functional
RAW264.7 = assay: Inhibition of LPS-induced NO production in mouse RAW264.7 cells at 50 uM relative to control; format: functional
MCF7 [2] = assay: Cytotoxicity against human MCF7 cells assessed as reduction in cell viability at 50 uM after 72 hrs by MTT assay relative to control; format: functional
LNCaP C4-2B [3] = assay: Cytotoxicity against human enzalutamide-resistant LNCaP C4-2B cells assessed as reduction in cell viability at 50 uM after 72 hrs by MTT assay relative to control; format: functional
MDA-MB-468 [4] = assay: Cytotoxicity against human MDA-MB-468 cells assessed as reduction in cell viability at 50 uM after 72 hrs by MTT assay relative to control; format: functional
MCF7 [5] = assay: Cytotoxicity against human MCF7 cells assessed as reduction in cell viability after 72 hrs by MTT assay; format: functional, cell-based; conditions: MCF7, 72 h
LNCaP C4-2B [6] = assay: Cytotoxicity against human enzalutamide-resistant LNCaP C4-2B cells assessed as reduction in cell viability after 72 hrs by MTT assay; format: functional, cell-based
MDA-MB-468 [7] = assay: Cytotoxicity against human MDA-MB-468 cells assessed as reduction in cell viability after 72 hrs by MTT assay; format: functional, cell-based; conditions: MDA-MB-468, 72 h
LNCaP C4-2B [8] = assay: Cytotoxicity against human LNCaP C4-2B cells assessed as reduction in cell viability after 72 hrs by MTT assay; format: functional, cell-based

Compound	Activity (LNCaP C4-2B [1]) [%]	inhibition at 50 µM (RAW264.7) [%]	Activity (MCF7 [2]) [%]	Activity (LNCaP C4-2B [3]) [%]	Activity (MDA-MB-468 [4]) [%]	IC50 (MCF7 [5]) [µM]	IC50 (LNCaP C4-2B [6]) [µM]	IC50 (MDA-MB-468 [7]) [µM]	IC50 (LNCaP C4-2B [8]) [µM]
COC(=O)CCCCCCc1cc(=O)c2c(OC)cc(O)cc2o1	<30	< 30	<30	<30	<30	–	–	–	–
COC1=C(O)C(=O)c2c(O)cccc2[C@@]1(OC)[C@@H](C)C1=CC(=O)OC1	>50	< 30	>50	>50	>50	21	14	15	9.1
COC1=CC(=O)c2c(O)cccc2C1=O	>50	< 30	>50	>50	>50	11	13	4.9	6.4
COc1cc(OC)c2c(=O)cc(CCCCCCC(=O)O)oc2c1	<30	< 30	<30	<30	<30	–	–	–	–
COC(=O)CCCCc1cc(=O)c2c(OC)cc(OC)cc2o1	<30	< 30	<30	<30	<30	–	–	–	–
COc1cc(OC)c2c(=O)cc(CCCCC(=O)O)oc2c1	<30	< 30	<30	<30	<30	–	–	–	–
COC(=O)CCCCCCc1cc(=O)c2c(O)cc(O)cc2o1	<30	< 30	<30	<30	<30	–	–	–	–
COC(=O)CCCc1cc(=O)c2c(OC)cc(O)cc2o1	<30	< 30	<30	<30	<30	–	–	–	–
COC(=O)CCc1cc(=O)c2c(OC)cc(OC)cc2o1	<30	< 30	<30	<30	<30	–	–	–	–
COC1=C(O)C(=O)c2c(O)cccc2C1=O	>50	< 30	>50	>50	>50	> 50	> 50	38	41
COc1cc(O)c2c(=O)cc(CCCCCCC(=O)O)oc2c1	<30	< 30	<30	<30	<30	–	–	–	–
COc1cc(OC)c2c(=O)cc(CCCC/C=C/C(=O)O)oc2c1	<30	< 30	<30	<30	<30	–	–	–	–
O=C(O)CCCCCCc1cc(=O)c2c(O)cc(O)cc2o1	<30	< 30	<30	<30	<30	–	–	–	–
COC(=O)CCCCCCc1cc(=O)c2c(O)cc(OC)cc2o1	<30	< 30	<30	<30	<30	–	–	–	–
COC(=O)CCCCCCc1cc(=O)c2c(OC)cc(OC)cc2o1	<30	< 30	<30	<30	<30	–	–	–	–
